The molecules below were run against T1, renin (Homo sapiens, UniProt P00797) (assay: in vitro renin inhibitory activity, standard radioimmunoassay for angiotensin I).
T1 sequence (P00797 67-406): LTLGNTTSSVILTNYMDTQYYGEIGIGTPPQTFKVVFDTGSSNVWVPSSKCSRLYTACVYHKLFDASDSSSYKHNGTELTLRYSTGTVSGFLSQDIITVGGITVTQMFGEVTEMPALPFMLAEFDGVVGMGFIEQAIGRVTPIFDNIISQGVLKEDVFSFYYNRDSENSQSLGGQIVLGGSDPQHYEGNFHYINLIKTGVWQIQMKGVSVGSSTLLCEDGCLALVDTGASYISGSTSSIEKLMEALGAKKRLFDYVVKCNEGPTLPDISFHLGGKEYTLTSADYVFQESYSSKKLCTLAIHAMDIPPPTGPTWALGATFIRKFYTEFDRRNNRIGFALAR
Type: biochemical
Description: The effectiveness of the aforementioned compounds is determined by a test for in vitro renin inhibitory activity. This activity is determined by a standard radioimmunoassay for angiotensin I. In this assay the enzyme, renin, incubated for two hours at 37° in the presence of a substrate, angiotensinogen, generates the product, angiotensin I. Test compounds are added to the incubation mixture.

In order of rising IC50:
1. CC(C)CC(=O)N[C@@H](Cc1ccccc1)C(=O)N[C@@H](Cc1c[nH]cn1)C(=O)N[C@@H](CC1CCCCC1)C(O)CC(CC(C)C)C(=O)NCc1cccc(CN)c1 (some centres unmarked) [Example 81]  54 nM
2. CCC(C)CNC(=O)CCC(O)[C@H](Cc1ccccc1)NC(=O)[C@H](Cc1c[nH]cn1)NC(=O)[C@H](Cc1ccccc1)NC(=O)OC(C)(C)C (some centres unmarked) [Example 85, BOC-PHE-HIS-PHE[CHOHCH2 ]GLY-NHCH2 CH(CH3)CH2 CH3]  75 nM
3. CC(C)CC(=O)N[C@@H](Cc1ccccc1)C(=O)N[C@@H](Cc1c[nH]cn1)C(=O)N[C@@H](CC1CCCCC1)C(O)CCC(=O)N[C@@H](CC(C)C)C(=O)NCc1cccc(CN)c1 (some centres unmarked) [Example 82]  120 nM
4. CC(C)CC(=O)N[C@@H](Cc1ccccc1)C(=O)N[C@@H](Cc1c[nH]cn1)C(=O)N[C@@H](CC1CCCCC1)C(O)CC(CC(C)C)C(=O)NCc1ccccc1 (some centres unmarked) [Example 78]  240 nM
5. CC(C)CC(=O)N[C@@H](Cc1ccccc1)C(=O)N[C@@H](Cc1c[nH]cn1)C(=O)N[C@H](CN[C@@H](CC(C)C)C(=O)NCc1ccccc1)CC1CCCCC1 [Example 70, L-histidinamide, N-(3-methyl-1-oxobutyl)-L-phenylalanyl-N-[1-cyclohexylmethyl]-2-[[3-methyl-1-[[(phenylmethyl)amino]carbonyl]butyl]amino]ethyl]-, [S-(R*,R*)]]  280 nM
6. CC(C)CC(=O)N[C@@H](Cc1ccccc1)C(=O)N[C@@H](Cc1c[nH]cn1)C(=O)NC(CC(C)C)C(O)CC(CC(C)C)C(=O)NCc1ccccc1 (stereo partly drawn) [Example 76, L-Histidinamide, N-(3-methyl-1-oxobutyl)-L-phenylalanyl-N-[2-hydroxy-6-methyl-1-(2-methylpropyl)-4-[[(phenylmethyl)amino]carbonyl]heptyl]]  740 nM
7. CCC(C)CNC(=O)/C=C/C(O)[C@H](Cc1ccccc1)NC(=O)[C@H](Cc1c[nH]cn1)NC(=O)[C@H](Cc1ccccc1)NC(=O)OC(C)(C)C (some centres unmarked) [Example 84, BOC-PHE-HIS-PHE[CHOHCH=CHCO]NHCH2 CH(CH3)CH2 CH3]  1400 nM
8. CCC(C)CNC(=O)CCC(O)[C@H](CC1CCCCC1)NC(=O)[C@H](Cc1c[nH]cn1)NC(=O)[C@H](Cc1cccc2ccccc12)NC(=O)OCc1ccccc1 (some centres unmarked) [Example 77]  1600 nM
9. CC(C)CC(=O)N[C@@H](Cc1ccccc1)C(=O)N[C@@H](Cc1c[nH]cn1)C(=O)N[C@@H](CC(C)C)[C@@H](O)CC(=O)N[C@H](CNCc1ccccc1)CC(C)C [Example 58, IVA-PHE-HIS-STA-LEU[CH2 NH]CH2 Ph]  1900 nM
10. CC(C)CC(=O)N[C@@H](Cc1ccccc1)C(=O)N[C@@H](Cc1c[nH]cn1)C(=O)N[C@@H](CC1CCCCC1)C(O)CCC(=O)NCc1cccc(CN)c1 (some centres unmarked) [Example 80]  2100 nM
11. CC(C)CC(=O)N[C@@H](Cc1ccccc1)C(=O)N[C@@H](Cc1c[nH]cn1)C(=O)N[C@@H](CC(C)C)[C@@H](O)CC(=O)N[C@@H](CC(C)C)CN(Cc1ccccc1)C(=O)OCc1ccccc1 [Example 57, L-histidinamide. N-(3-methyl-1-oxobutyl)-L-phenylalanyl-N-[2-hydroxy-4-[[3-methyl-1-[[[(phenylmethoxy)carbonyl](phenylmethyl)amino]methyl]butyl]amino]-1-(2-methylpropyl)-4-oxobutyl]-, [1S-[1R*,2R*,4(R*)]]-]  3000 nM
12. CC(C)CC(=O)N[C@@H](Cc1ccccc1)C(=O)N[C@H](CN[C@@H](CC(C)C)[C@@H](O)CC(=O)N[C@@H](CC(C)C)C(=O)NCc1ccccc1)Cc1c[nH]cn1 [Example 66, 3,8,11,14-Tetraazaoctadecanamide, 6-hydroxy-10-(1H-imidazol-4-ylmethyl)-17-methyl-2,7-bis(2-methylpropyl)-4,12,15-triazo-N,13-bis(phenylmethyl)-, [2S-(2R*,6R*,7R*,10R*,13R*)]]  3500 nM
13. CC(C)CC(CC(O)[C@H](CC1CCCCC1)NC(=O)OC(C)(C)C)C(=O)N[C@@H](CC(C)C)[C@@H](O)CC(=O)N[C@@H](CC(C)C)C(=O)NCc1ccccc1 (some centres unmarked) [Example 79]  3800 nM
14. CC(C)C[C@H](NC(=O)[C@H](C)NC(=O)C[C@H](O)[C@H](CC(C)C)NC(=O)[C@H](Cc1ccccc1)NC[C@H](Cc1ccccc1)NC(=O)OC(C)(C)C)[C@@H](O)CC(=O)NCc1ccccc1 [Example 59, BOC-PHE[CH2 NH]PHE-STA-ALA-STA-NHCH2 Ph]  5600 nM
15. CC(C)CC(=O)N[C@@H](Cc1ccccc1)C(=O)N[C@@H](Cc1c[nH]cn1)C(=O)N[C@H](CN[C@@H](CC(C)C)C(=O)NCc1ccccc1)CC(C)C [Example 65, L-histidinamide, N-(3-methyl-1-oxobutyl)-L-phenylalanyl-N-[3-methyl-1-[[[3-methyl-1-[[(phenylmethyl)amino]carbonyl]butyl]amino]methyl]butyl], [S-(R*,R*)]]  7700 nM
16. CC(C)C[C@@H](CN(Cc1ccccc1)C(=O)OCc1ccccc1)NC(=O)C[C@H](O)[C@H](CC(C)C)NC(=O)[C@@H](NC(=O)[C@H](Cc1ccccc1)NC(=O)OC(C)(C)C)C(C)C [Example 56, l-valinamide.N-[(1,1-dimethylethoxy)carbonyl]-L-phenylalanyl-N-[2-hydroxy-4-[[3-methyl-1-[[[(phenylmethoxy)carbonyl](phenylmethyl)amino]methyl]butyl]amino]-1-(2-methylpropyl)-4-oxobutyl]-, [2S-[1R*,2R*,4R*)]]-]  16000 nM
17. CC(C)C[C@H](NC(=O)C[C@H](O)[C@H](CC(C)C)NC(=O)[C@H](Cc1cncn1COCc1ccccc1)NC[C@H](Cc1ccccc1)NC(=O)OC(C)(C)C)C(=O)NCc1ccccc1 [Example 62, BOC-PHE[CH2 NH]HIS(BOM)-STA-LEU-NHCH2 Ph]  16000 nM
18. CC(C)CC(COC(C(=O)NC(CC(C)C)C(O)CC(=O)NC(C)C(=O)NC(CC(C)C)C(O)CC(=O)NCc1ccccc1)c1ccccc1)NC(=O)OC(C)(C)C (centres unmarked) [Example 75, 10,18-dihydroxy-14-methyl-3,9,17-tris-(2-methylpropyl)-7,12,15,20-tetraoxo-6,22-diphenyl-5-oxa-2,8,13,16,21-pentaazadocosanoic acid, 1,1-dimethylethyl ester]  20000 nM
19. Cc1c(C)c(C)c(C[C@H](CN[C@@H](Cc2c[nH]cn2)C(=O)N[C@@H](CC(C)C)[C@@H](O)CC(=O)N[C@@H](CC(C)C)C(=O)NC2CCN(Cc3ccccc3)CC2)NC(=O)OC(C)(C)C)c(C)c1C [Example 61]  30000 nM
20. CC[C@H](C)[C@H](NC[C@@H](NC(=O)CC(C)C)[C@@H](C)CC)C(=O)N[C@@H](CC(C)C)[C@@H](O)CC(=O)N[C@@H](CC(C)C)C(=O)NCc1ccccc1 [Example 73, 3,8,11,14-tetraazaoctadecanamide, 6-hydroxy-17-methyl-10,13-bis(1-methylpropyl)-2,7-bis(2-methylpropyl)-4,9,15-trioxo-N-(phenylmethyl)]  30000 nM
